We go through 1 compound from patent publication US6777442B2, “Diphenyl derivatives” (Bayer Aktiengesellschaft, priority 2001, dated 2004).

This assay in a line: T3 promoter assay cell test (luciferase reporter). Format: cell-based. The settings on record: Homo sapiens; HepG2 cells, luciferase induction, costimulator retinoic acid, incubation 48 or 72 hours. As for the experimental part:
The activity of the compounds according to the invention can be examined, for example, in vitro by the known T3 promoter assay cell test, described below:
The test is carried out using a stabily transfected human HepG2 hepatocarcinoma cell which expresses a luciferase gene under the control of a thyroid-hormone-regulated promoter. The vector used for transfection carries, upstream of the luciferase gene, a minimal thymidine kinase promoter with a thyroid-hormone-responsive element (TRE) comprising two inverted palindromes of in each case 12 bp and one 8 bp spacer.
For the test, the cell cultures are sown in 96-well plates in Eagle's Minimal Essential Medium, with the following additives: glutamine, tricine, [N-(tris-hydroxymethyl)-methyl)glycine], sodium pyruvate, non-essential amino acids (L-Ala, L-Asn, L-Asp, L-Pro, L-Ser, L-Glu, Gly), insulin, selenium and transferrin. The cultures are grown at 37° C. in a 10% CO2 atmosphere for 48 hours. Serial dilutions of test substance or reference compound (T3, T4) and the costimulator retinoic acid are then added to the test cultures, which are then incubated as above for a further 48 or 72 hours. […] To determine the luciferase, induced by T3 or other substances, the cells are then lyzed by addition of a triton- and luciferin-containing buffer (from Promega) and immediately measured luminometrically. For each compound, the EC50 is calculated. […]
(In general: In a reporter assay the amount or activity of a reporter protein is the signal.)

Molecules are shown by their SMILES.

For the compound `Cc1cc(OCC(=O)O)cc(C)c1Cc1ccc(O)c(S(=O)(=O)c2ccc(F)cc2)c1` [Example 2, (4-{3-[(4-Fluorophenyl)sulphonyl]-4-hydroxybenzyl}-3,5-dimethylphenoxy)acetic acid], the EC50 (in general, the concentration that produces a half-maximal response) stood at 2 nM.
